Laboratory results published in patent publication US12662494B2, “Optically active bridged piperidine derivative” (Sumitomo Pharma Co., Ltd., priority 2018, dated 2026).
Read-outs that look alike come from different tables or passages of the source.

Assays:
RS4; 11 cells = assay: Test 2: inhibition of cell proliferation, RS4;11; assay type: cell-based; conditions: for cell proliferation inhibition activity, good (in words) / cell proliferation inhibitory activity, potent (in words): summary of Test 2 table, RS4;11 and MOLM-13; for IC50: Homo sapiens, 168 h, RS4;11 cells, 7 days, PrestoBlue cell viability
Description: (§1) Test 2: Test for Evaluating the Inhibition of Cell Proliferation
(§2) RS4; 11 cells were obtained from American Type Culture Collection (ATCC). The cells were cultured at 37° C. in the presence of 5% CO2 in RPMI 1640 medium containing 10% fetal bovine serum and 1% penicillin/streptomycin. MOLM-13 cells were separately obtained from DSMZ (Deutsche Sammlung von Mikroorganismen und Zellkulturen GmbH). The cells were cultured at 37° C. in the presence of 5% CO2 in RPMI 1640 medium containing […] and 1% penicillin/streptomycin.
(§3) The cells were plated to a 96-well plate in 2000 cells/well, each test compound was added thereto to adjust the final concentration of DMSO to 0.1% of DMSO, and the cells were cultured for 7 days. After the cultivation, the cell viability was calculated with PrestoBlue™ Cell Viability Reagent (Invitrogen, A13261). The IC50 value was calculated from a survival curve, that corresponds to the concentration of the test compound at which the cell proliferation inhibition rate is 50%.

[1] = mouse, in vivo, po, 100 mg/kg
Description: Test 4: Pharmacokinetic Study
(§6) The test compound suspended in 0.5% methylcellulose was orally administered to 7-week-old male NOD. CB17-Prkdcscid/J mouse in a dose of 100 mg/kg. The blood sample was taken from jugular vein without anesthesia over time for 24 hours. The blood sample was centrifuged to obtain plasma. The plasma was pre-treated by methanol extraction method, and then analyzed with an LC-MS/MS to determine the concentration of the test compound. Based on the data from 0 hour after the administration until the time (t) when there was the final detection in the plasma, AUC was calculated by trapezoidal method.

[2] = target: T1, Menin-MLL binding (His-Menin1-615 and MLL1-172-FLAG) (Homo sapiens, UniProt O00255); assay: Test 1: inhibition of the menin-MLL binding (HTRF); conditions: for IC50: His-Menin1-615 30 nmol/L, MLL1-172-FLAG 50 nmol/L; for menin-MLL binding inhibition activity (in words): summary of Test 1 table
T1 construct: Menin1-615 wherein 6× His tag and HA tag are inserted in the N-terminus; HA (N); myc (C)
T1 sequence (O00255 1-615 isoform O00255-1): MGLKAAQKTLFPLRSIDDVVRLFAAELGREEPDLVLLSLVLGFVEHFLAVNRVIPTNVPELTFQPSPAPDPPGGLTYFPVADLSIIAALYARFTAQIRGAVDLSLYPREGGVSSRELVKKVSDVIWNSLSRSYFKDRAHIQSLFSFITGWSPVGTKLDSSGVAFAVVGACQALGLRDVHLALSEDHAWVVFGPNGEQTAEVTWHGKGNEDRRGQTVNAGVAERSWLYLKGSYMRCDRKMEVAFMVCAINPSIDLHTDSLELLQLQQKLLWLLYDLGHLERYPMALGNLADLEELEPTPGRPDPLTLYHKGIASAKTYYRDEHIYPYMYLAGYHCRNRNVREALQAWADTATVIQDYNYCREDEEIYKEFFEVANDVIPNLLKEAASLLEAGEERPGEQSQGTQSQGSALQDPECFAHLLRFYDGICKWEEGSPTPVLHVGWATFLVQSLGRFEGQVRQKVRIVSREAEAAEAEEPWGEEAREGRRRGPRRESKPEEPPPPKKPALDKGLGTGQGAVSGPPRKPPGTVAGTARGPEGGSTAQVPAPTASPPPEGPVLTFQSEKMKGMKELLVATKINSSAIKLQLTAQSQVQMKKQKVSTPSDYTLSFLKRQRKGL
Description: Test 1: Test for Evaluating the Inhibition of the Menin-MLL Binding
Menin1-615 wherein 6× His tag and HA tag are inserted in the N-terminus, and myc tag is inserted in the C-terminus (hereinafter, referred to as His-Menin1-615), was diluted with an assay buffer (25 mmol/L HEPES, 150 mmol/L NaCl, 1 mmol/L dithiothreitol, 0.5% (w/v) Tween 80, 0.3% (w/v) BSA, 0.3% (w/v) skim milk) to adjust the final concentration to 30 nmol/L. The test compounds were also diluted with the assay buffer to adjust each concentration of the test compounds to 0.005 to 5 μmol/L. The prepared His-Menin1-615 and test compounds were added to a light-shielding 384-well low-volume plate (Corning, #4514) in 2 μL/well and […], respectively, and the plate was covered with a lid for light-shielding (Corning, #3935), and incubated at room temperature for 3 hours. After the incubation, MLL1-172 wherein FLAG tag is inserted in the C-terminus (MLL1-172-FLAG), was separately diluted with the assay buffer to adjust the final concentration to 50 nmol/L. The prepared MLL1-172-FLAG was added to the above plate in 2 μL/well, and the plate was covered with a lid for light-shielding and incubated at room temperature for an hour.
Then, anti-6HIS-d2 antibody (cisbio, 61HISDLA) and anti-FLAGM2-K antibody (cisbio, 61FG2KLA) were diluted with an antibody dilution buffer (50 mmol/L Tris, 150 mmol/L NaCl, 800 mmol/L KF, pH 7.4) to adjust the final concentration to 1.4 μg/mL to prepare an antibody mixture. The prepared antibody mixture was added to the above plate in 10 μL/well, and the plate was covered with a lid and incubated at 4° C. for 17 to 24 hours. After the incubation, the signal was detected with RUBYstar (BMG LABTECH).

MOLM-13 cells = assay: Test 2: inhibition of cell proliferation, MOLM-13; assay type: cell-based; conditions: Homo sapiens, 168 h, 7 days, PrestoBlue cell viability
Description: as §1, §2, §3

MEIS1 = assay: Test 3: inhibition of mRNA transcription, MEIS1 in MV4;11 cells; assay type: cell-based; conditions: for mRNA at 1 μM (% control) MEIS1: MV4;11 cells, 20 to 24 hours, fitted with GAPDH; for mRNA transcription inhibition activity (in words): summary of Test 3 table, MEIS1 and HOXA9, MV4;11 cells, 1 μM
Description: (§4) Test 3: Test for the Inhibition of mRNA Transcription with Test Compounds
(§5) MV4; 11 cells were obtained from American Type Culture Collection (ATCC). The cells were cultured at 37° C. in the presence of 5% CO2 in RPMI 1640 medium containing 10% fetal bovine serum and 1% penicillin/streptomycin. To the MV4; 11 cells was added each test compound to adjust the final concentration to 1 μmol/L, and the cells were cultured at 37° C. in the presence of 5% CO2 for 20 to 24 hours. After the incubation, the total RNA was extracted from the cells with RNeasy™ Mini Kit (QIAGEN, 74106), and CDNA was synthesized with Superscript™ VILO™ CDNA Synthesis Kit (Invitrogen, #11754250). By using TaqMan™ Gene Expression Master Mix (Applied Biosystems, 4369016) and TaqMan™ probe (Applied Biosystems), the expression level of mRNA was quantified from the obtained cDNA with 7900HT (Applied Biosystems). The mRNA expression level of each obtained gene was fitted with the expression level of mRNA of GAPDH.

HOXA9 = assay: Test 3: inhibition of mRNA transcription, HOXA9 in MV4;11 cells; assay type: cell-based; conditions: 20 to 24 hours, fitted with GAPDH
Description: as §4, §5

[3] = Test 4: pharmacokinetic study, oral, mouse; conditions: for AUC(0-t): male, NOD.CB17-Prkdcscid/J, plasma, po, 100 mg/kg; for compound-exposure in plasma (in words): summary of Test 4 table, oral 100 mg/kg
Description: Test 4: Pharmacokinetic Study
as §6

Row | IC50 [2] | IC50 (RS4; 11 cells) | IC50 (MOLM-13 cells) | AUC(0-t) [3] | compound-exposure in plasma (in words) [3] | SMILES | cell proliferation inhibition activity, good (in words) (RS4; 11 cells) | cell proliferation inhibitory activity, potent (in words) (RS4; 11 cells) | AUC(0-t) [1] | compound-exposure in plasma (in words) [1] | menin-MLL binding inhibition activity (in words) [2] | mRNA at 1 μM (% control) MEIS1 (MEIS1) | mRNA transcription inhibition activity (in words) (MEIS1) | mRNA at 1 μM (% control) HOXA9 (HOXA9)
1 | – | – | – | – | – | [2H]C([2H])=C1C[C@@H]2CC[C@H]1[C@@H](C(=O)N1CCC3(CC1)CN(c1c(C#N)cnc4sc(CC(F)(F)F)cc14)C3)N2 [Example 24, 4-{7-[(1S,3S,4R)-5-(^2H2)methylidene-2-azabicyclo[2.2.2]octane-3-carbonyl]-2,7-diazaspiro[3.5]nonan-2-yl}-2-(2,2,2-trifluoroethyl)thieno[2,3-b]pyridine-5-carbonitrile] | good cell proliferation inhibition activity | potent cell proliferation inhibitory activity | 6970 ng·h/mL | good compound-exposure in plasma | – | – | – | –
2 | 36.5 nM | 90 nM | 280 nM | 10300 ng·h/mL | good compound-exposure in plasma | O=C([C@H]1N[C@H]2CC[C@@H]1C[C@@H]2CC1CC1)N1CC2(C1)CN(c1c(C(F)(F)F)cnc3sc(CC(F)(F)F)cc13)C2 [Example 1, [(1S,3S,4R,6S)-6-(Cyclopropylmethyl)-2-azabicyclo[2.2.2]octan-3-yl]{6-[2-(2,2,2-trifluoroethyl)-5-(trifluoromethyl)thieno[2,3-b]pyridin-4-yl]-2,6-diazaspiro[3.3]heptan-2-yl}methanone] | good cell proliferation inhibition activity | potent cell proliferation inhibitory activity | – | – | potent menin-MLL binding inhibition activity | 31.8 % control | mRNA transcription inhibition activity | 55.0 % control
3 | 18.8 nM | 80 nM | 150 nM | 6740 ng·h/mL | good compound-exposure in plasma | O=C([C@H]1N[C@H]2CC[C@@H]1[C@H](F)[C@@H]2CC1CC1)N1CC2(C1)CN(c1c(C(F)(F)F)cnc3sc(CC(F)(F)F)cc13)C2 [Example 11, [(1S,3S,4S,5R,6R)-6-(cyclopropylmethyl)-5-fluoro-2-azabicyclo[2.2.2]octan-3-yl]{6-[2-(2,2,2-trifluoroethyl)-5-(trifluoromethyl)thieno[2,3-b]pyridin-4-yl]-2,6-diazaspiro[3.3]heptan-2-yl}methanone] | good cell proliferation inhibition activity | potent cell proliferation inhibitory activity | – | – | potent menin-MLL binding inhibition activity | 20.6 % control | mRNA transcription inhibition activity | 45.0 % control
4 | – | – | – | – | – | [2H]C([2H])=C1C[C@@H]2CC[C@H]1[C@@H](C(=O)N1CCC3(CC1)CN(c1c(C(F)(F)F)cnc4sc(CC(F)(F)F)cc14)C3)N2 [Example 21, [(1S,3S,4R)-5-(^2H2)methylidene-2-azabicyclo[2.2.2]octan-3-yl]{2-[2-(2,2,2-trifluoroethyl)-5-(trifluoromethyl)thieno[2,3-b]pyridin-4-yl]-2,7-diazaspiro[3.5]nonan-7-yl}methanone] | good cell proliferation inhibition activity | potent cell proliferation inhibitory activity | 24300 ng·h/mL | good compound-exposure in plasma | – | – | – | –
